The values below come from publication PMC4349892, “Biochemical Characterization of Three BLT Receptors in Zebrafish” (PLoS ONE, 2015).

Assay type in all cases: biochemical
What all share (conditions): agonist; pH 7.4 (calcium); GTPγS binding at 1 μM ligand, 30°C; dose-response curves only in figures
Background: GTPγS resists hydrolysis and so accumulates on activated G proteins.

For assay [1], the target named is T1, hBLT2 (Homo sapiens, UniProt Q9NPC1).
T1 construct: gene LTB4R2; also HEK293 with Gq/i1
T1 sequence (Q9NPC1 1-358): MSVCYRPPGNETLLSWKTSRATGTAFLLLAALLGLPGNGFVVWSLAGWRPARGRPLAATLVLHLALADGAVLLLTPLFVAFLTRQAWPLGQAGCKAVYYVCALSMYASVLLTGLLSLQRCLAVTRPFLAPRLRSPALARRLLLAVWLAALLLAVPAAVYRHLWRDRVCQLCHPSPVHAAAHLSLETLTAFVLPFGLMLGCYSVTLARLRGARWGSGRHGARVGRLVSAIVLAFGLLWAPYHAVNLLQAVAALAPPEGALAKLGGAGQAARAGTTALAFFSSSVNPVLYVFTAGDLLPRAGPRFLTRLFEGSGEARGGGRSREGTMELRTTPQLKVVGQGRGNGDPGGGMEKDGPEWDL

The target of assay [2] is T2, zebrafish Blt2b (Danio rerio, UniProt E7F4K9).
T2 construct: gene ltb4r2b; also HEK293 with Gq/i1; LC009451 assigned by order of listing
T2 sequence (E7F4K9 1-339): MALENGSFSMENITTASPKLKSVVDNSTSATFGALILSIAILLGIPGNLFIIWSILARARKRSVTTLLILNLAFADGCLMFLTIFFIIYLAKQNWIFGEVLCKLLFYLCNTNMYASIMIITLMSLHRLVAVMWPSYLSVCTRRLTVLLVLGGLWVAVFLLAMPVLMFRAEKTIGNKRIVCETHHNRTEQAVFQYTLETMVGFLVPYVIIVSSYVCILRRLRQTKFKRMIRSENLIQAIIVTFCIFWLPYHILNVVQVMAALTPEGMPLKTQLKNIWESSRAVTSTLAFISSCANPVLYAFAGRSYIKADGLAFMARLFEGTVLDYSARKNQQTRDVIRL
Kind of assay: calcium mobilization (Fluo-8), […]GTPγS binding, TGFα shedding. On the technique in general: Calcium assays in cells follow changes in intracellular calcium, usually with a dye or a luminescent sensor.

The target in another assay is T3, hBLT1 (Homo sapiens, UniProt Q15722).
T3 construct: gene LTB4R; also HEK293 with Gq/i1
Kind of assay: calcium mobilization (Fluo-8), […]GTPγS binding, cAMP inhibition, TGFα shedding.

A further assay has as its target T4, zebrafish Blt2a (Danio rerio, UniProt A0A0A8JZN4).
T4 construct: gene ltb4r2a; also HEK293 with Gq/i1; LC009450 assigned by order of listing
T4 sequence (A0A0A8JZN4 1-382): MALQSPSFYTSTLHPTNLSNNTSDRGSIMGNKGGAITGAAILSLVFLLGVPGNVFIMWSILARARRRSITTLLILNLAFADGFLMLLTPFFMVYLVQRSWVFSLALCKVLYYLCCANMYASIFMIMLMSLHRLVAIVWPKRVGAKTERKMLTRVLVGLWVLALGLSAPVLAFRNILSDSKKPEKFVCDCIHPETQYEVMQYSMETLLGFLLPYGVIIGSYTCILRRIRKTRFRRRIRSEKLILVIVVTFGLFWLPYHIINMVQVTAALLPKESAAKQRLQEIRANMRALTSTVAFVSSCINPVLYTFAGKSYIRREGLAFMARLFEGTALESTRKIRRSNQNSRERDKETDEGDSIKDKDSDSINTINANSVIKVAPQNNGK
Kind of assay: calcium mobilization (Fluo-8), […]GTPγS binding, TGFα shedding.

Another assay concerns the target T5, zebrafish Blt1 (Danio rerio, UniProt A0A0A8JWS4).
T5 construct: gene ltb4r; also HEK293 with Gq/i1
T5 sequence (A0A0A8JWS4 1-380): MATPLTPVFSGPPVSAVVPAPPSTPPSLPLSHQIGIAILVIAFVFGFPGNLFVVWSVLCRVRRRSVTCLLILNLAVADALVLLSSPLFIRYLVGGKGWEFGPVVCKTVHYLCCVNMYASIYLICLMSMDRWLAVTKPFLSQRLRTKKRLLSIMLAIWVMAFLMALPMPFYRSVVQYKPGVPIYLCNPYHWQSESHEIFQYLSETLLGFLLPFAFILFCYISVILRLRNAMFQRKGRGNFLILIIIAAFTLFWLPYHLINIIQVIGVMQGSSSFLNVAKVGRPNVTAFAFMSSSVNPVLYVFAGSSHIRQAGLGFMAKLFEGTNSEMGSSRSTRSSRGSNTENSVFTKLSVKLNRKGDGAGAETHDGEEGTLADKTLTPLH
Put plainly: calcium mobilization (Fluo-8), […]GTPγS binding, cAMP inhibition, TGFα shedding.

Assay [3] concerns the target T1, hBLT2. The description is as above.
Assay [4] has as its target T2, zebrafish Blt2b. The assay is described as above.

T3 sequence (Q15722 whole entry): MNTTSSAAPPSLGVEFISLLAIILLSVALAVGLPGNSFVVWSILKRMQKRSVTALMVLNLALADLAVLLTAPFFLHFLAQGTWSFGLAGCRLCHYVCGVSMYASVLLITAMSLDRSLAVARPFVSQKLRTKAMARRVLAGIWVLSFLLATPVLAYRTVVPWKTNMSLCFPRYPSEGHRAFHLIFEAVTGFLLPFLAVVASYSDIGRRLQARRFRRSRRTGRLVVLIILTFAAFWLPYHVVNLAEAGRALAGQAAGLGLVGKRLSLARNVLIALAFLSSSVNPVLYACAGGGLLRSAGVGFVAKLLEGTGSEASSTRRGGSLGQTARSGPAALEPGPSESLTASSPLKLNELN

On to `CCCCC/C=C\C[C@@H](O)/C=C/C=C/C=C\[C@@H](O)CCCC(=O)O` [LTB4], for which the “calcium mobilization (Fluo-8), [35S]GTPγS binding, TGFα shedding” value at hBLT2 [1], on zebrafish Blt2b [2] and on zebrafish Blt2a was “exhibited a dose-dependent increase in response to either 12-HHT or LTB4 stimulation” in each case. Further, the “calcium mobilization (Fluo-8), [35S]GTPγS binding, cAMP inhibition, TGFα sheddin” value on hBLT1 and on zebrafish Blt1 was “intracellular free calcium concentration increased in a dose-dependent manner in response to LTB4 stimulation” in each case.

`CCCCC[C@H](O)/C=C/C=C/C/C=C\CCCC(=O)O` [12-HHT, 12(S)-hydroxy-5-cis-8,10-trans-heptadecatrienoic acid]: the “calcium mobilization (Fluo-8), [35S]GTPγS binding, cAMP inhibition, TGFα sheddin” value on hBLT2 [3] is “exhibited a dose-dependent increase in response to either 12-HHT or LTB4 stimulation”; on zebrafish Blt2b [4] it was 12-HHT activated zebrafish Blt2a and Blt2b at lower doses than LTB4.
